From paper PMC12285253, “Insights into genetic determinants of volatile fatty acid catabolism in Cupriavidus necator H16” (Applied and Environmental Microbiology, 2025)

What was measured:
H16_B1335 = molecular target: T1, H16_B1335 (Cupriavidus necator, UniProt Q0K1J9); assay: coupled NADH assay of ATP consumption (myokinase, pyruvate kinase, lactate dehydrogenase); type: biochemical; details: 2 mM substrate, 1 mM CoA, 2.1 mM ATP, 5 mM MgCl2, pH 7.5
T1 sequence (Q0K1J9 1-562): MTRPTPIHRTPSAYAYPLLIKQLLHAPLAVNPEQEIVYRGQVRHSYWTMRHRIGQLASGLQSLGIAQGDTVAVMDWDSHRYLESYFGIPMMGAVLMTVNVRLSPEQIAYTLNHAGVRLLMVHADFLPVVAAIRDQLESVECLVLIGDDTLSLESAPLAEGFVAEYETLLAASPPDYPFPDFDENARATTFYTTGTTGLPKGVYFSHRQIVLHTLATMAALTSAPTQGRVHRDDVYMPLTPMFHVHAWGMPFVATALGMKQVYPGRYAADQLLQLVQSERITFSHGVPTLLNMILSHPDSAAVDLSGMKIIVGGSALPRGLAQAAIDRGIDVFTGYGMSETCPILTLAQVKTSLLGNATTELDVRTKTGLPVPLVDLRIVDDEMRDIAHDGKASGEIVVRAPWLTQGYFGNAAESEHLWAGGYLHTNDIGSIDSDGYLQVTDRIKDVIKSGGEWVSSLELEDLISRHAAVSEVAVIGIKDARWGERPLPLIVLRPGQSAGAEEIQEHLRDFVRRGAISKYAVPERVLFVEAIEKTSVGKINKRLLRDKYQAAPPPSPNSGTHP

H16_B1148 = molecular target: T2, H16_B1148 (Cupriavidus necator, UniProt Q0K235); assay: as above; type: biochemical; details: 2 mM substrate, 1 mM CoA, 2.1 mM ATP, 5 mM MgCl2, pH 7.5
T2 construct: N-terminal hexahistidine tag, E. coli BL21(DE3) delta-patZ, Ni-NTA and SEC
T2 sequence (Q0K235 1-544): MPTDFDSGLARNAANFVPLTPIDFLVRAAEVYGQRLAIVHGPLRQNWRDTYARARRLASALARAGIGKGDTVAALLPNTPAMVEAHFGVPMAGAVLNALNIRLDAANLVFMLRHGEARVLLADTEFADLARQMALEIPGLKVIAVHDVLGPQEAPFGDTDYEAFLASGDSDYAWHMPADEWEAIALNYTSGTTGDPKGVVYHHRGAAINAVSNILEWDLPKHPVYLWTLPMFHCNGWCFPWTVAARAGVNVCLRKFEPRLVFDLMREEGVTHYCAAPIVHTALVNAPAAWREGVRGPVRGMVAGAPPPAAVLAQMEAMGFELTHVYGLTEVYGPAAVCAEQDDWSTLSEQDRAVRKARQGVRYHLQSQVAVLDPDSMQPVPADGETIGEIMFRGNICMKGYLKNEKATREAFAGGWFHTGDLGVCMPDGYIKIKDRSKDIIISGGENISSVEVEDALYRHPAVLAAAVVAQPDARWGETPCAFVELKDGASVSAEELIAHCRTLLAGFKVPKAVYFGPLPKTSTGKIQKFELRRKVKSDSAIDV

CCCCCC(=O)O [C6, hexanoate]
relative activity (H16_B1335): the relative activity of H16_B1335 skewed toward longer chain lengths

CCC(=O)O [C3, propionate]
relative activity (H16_B1148): The relative activity of H16_B1148 skewed toward shorter chain lengths

CCCCC(=O)O [C5, valerate]
relative activity (H16_B1335): our in vitro assay results demonstrating that H16_B1335 is also active on valerate
